Test results reported in US9989543B2, “Composition, device, and method for detecting olmesartan and improving compliance in treating hypertension” (Autotelic LLC, priority 2016, dated 2018).
Like-named read-outs stand apart in the source and are kept apart here.

Tests used:
[1] = Olmesartan blood concentration/AUC after 7-day versus single-day dosing; type: in vivo, Korean healthy males
[2] = as above; type: in vivo, Korean healthy males; details: for % Reduction: Compliance-7X vs Non-Compliance-1X
Description: Drug exposure as AUC was studied among Korean healthy males aged between 20 and 50 years in two clinical studies: (1) taking drug regularly for 7 days (subjects were administered either 1 tablet of 40 mg olmesartan medoxomil, 1 tablet of 20 mg rosuvastatin calcium, or 1 tablet each of both agents orally every 24 hours for 7 days) and (2) taking drug only one day (58 subjects divided into 2 cohorts and treated over 2 periods; one tablet of ST-101 (FDC olmesartan and rosuvastatin) tablet of 40 mg olmesartan medoxomil/20 mg rosuvastatin calcium was administered once orally as the test drug, or 1 tablet each of 40 mg olmesartan medoxomil and 20 mg rosuvastatin calcium was co-administered once orally as the comparator). Pharmacokinetic analyses were performed. For PK analyses, blood samples were collected at 0 (pre-dose), 0.5, 2, 2.5, 3, 4, 5, 6, 7, 8, 10, 12, 16, 24, and 48 hr after dosing of olmesartan either as FDC or as single agent. The results are graphically illustrated in FIG. 1. FIG. 1 compares olmesartan AUC (area-under-the-curve) for subjects taking olmesartan regularly for 7 days (Multiple Dosing ×7, solid circles) and for subjects taking olmesartan only 1 day (Single Dosing ×1, open circles): mean+/−95% confidence interval (CI) for subjects taking olmesartan regularly for 7 days. […] The differences between compliance and non-compliance across a 24 hr period were determined (see Table 1). The % reduction in blood concentration can be used to determine if the patient is missing his/her medication. […] There is about 40 ng/mL remaining at 24 hr, which accumulated to about 60 ng/mL following consistently medication for 7 days. The comparison between full compliance for 7 days versus noncompliance is tabulated below.

[3] = highest dose, olmesartan at 40 mg/day; cited from earlier work

**Q.** What does the source list for `CCCc1nc(C(C)(C)O)c(C(=O)O)n1Cc1ccc(-c2ccccc2-c2nnn[nH]2)cc1` [olmesartan]?
**A.** % Reduction ([1]; Time 1.5 hrs, Compliance-7X vs Non-Compliance-1X): 14.15%; concentration at 1 h ([1]; male, human, blood, oral, 40 mg, Time 1 hrs, dosing every 24 hours for 7 days, read-out: Blood concentration (ng/mL)/Compliance-7X): 858 ng/mL; % Reduction ([2]; Time 0 hrs): Infinity; % Reduction ([2]; Time 1 hrs): 26.84%; % Reduction ([2]; Time 2 hrs): 12.43%; % Reduction ([2]; Time 2.5 hrs): 13.33%; % Reduction ([2]; Time 3 hrs): 19.97%; % Reduction ([2]; Time 4 hrs): 19.85%; % Reduction ([2]; Time 5 hrs): 15.71%; % Reduction ([2]; Time 6 hrs): 20.17%; % Reduction ([2]; Time 8 hrs): 24.95%; % Reduction ([2]; Time 10 hrs): 30.40%; % Reduction ([2]; Time 12 hrs): 31.90%; % Reduction ([2]; Time 16 hrs): 40.22%; % Reduction ([2]; Time 24 hrs): 61.33%; concentration at 24 h ([2]; male, human, blood, oral, 40 mg, 24 hr, following consistently medication for 7 days, read-out: blood concentration remaining at 24 hr, accumulated): ~60 ng/mL; concentration at 0 h ([2]; male, human, blood, oral, 40 mg, Time 0 hrs, dosing every 24 hours for 7 days, read-out: Blood concentration (ng/mL)/Compliance-7X): 54.1 ng/mL; concentration at 1.5 h ([2]; male, human, blood, oral, 40 mg, dosing every 24 hours for 7 days, read-out: Blood concentration (ng/mL)/Compliance-7X): 1060 ng/mL; concentration at 1.5 h ([2]; male, human, blood, oral, 40 mg, drug taken only one day, read-out: Blood concentration (ng/mL)/Non-Compliance-1X): 932 ng/mL; concentration at 2 h ([2]; male, human, blood, oral, 40 mg, Time 2 hrs, dosing every 24 hours for 7 days, read-out: Blood concentration (ng/mL)/Compliance-7X): 1130 ng/mL; concentration at 2.5 h ([2]; male, human, blood, oral, 40 mg, Time 2.5 hrs, dosing every 24 hours for 7 days, read-out: Blood concentration (ng/mL)/Compliance-7X): 1110 ng/mL; concentration at 3 h ([2]; male, human, blood, oral, 40 mg, Time 3 hrs, dosing every 24 hours for 7 days, read-out: Blood concentration (ng/mL)/Compliance-7X): 1090 ng/mL; concentration at 4 h ([2]; male, human, blood, oral, 40 mg, Time 4 hrs, dosing every 24 hours for 7 days, read-out: Blood concentration (ng/mL)/Compliance-7X): 911 ng/mL; concentration at 5 h ([2]; male, human, blood, oral, 40 mg, Time 5 hrs, dosing every 24 hours for 7 days, read-out: Blood concentration (ng/mL)/Compliance-7X): 714 ng/mL; concentration at 6 h ([2]; male, human, blood, oral, 40 mg, Time 6 hrs, dosing every 24 hours for 7 days, read-out: Blood concentration (ng/mL)/Compliance-7X): 543 ng/mL; concentration at 8 h ([2]; male, human, blood, oral, 40 mg, Time 8 hrs, dosing every 24 hours for 7 days, read-out: Blood concentration (ng/mL)/Compliance-7X): 361 ng/mL; concentration at 10 h ([2]; male, human, blood, oral, 40 mg, Time 10 hrs, dosing every 24 hours for 7 days, read-out: Blood concentration (ng/mL)/Compliance-7X): 263 ng/mL; concentration at 12 h ([2]; male, human, blood, oral, 40 mg, Time 12 hrs, dosing every 24 hours for 7 days, read-out: Blood concentration (ng/mL)/Compliance-7X): 193 ng/mL; concentration at 16 h ([2]; male, human, blood, oral, 40 mg, Time 16 hrs, dosing every 24 hours for 7 days, read-out: Blood concentration (ng/mL)/Compliance-7X): 123 ng/mL; concentration at 24 h ([2]; male, human, blood, oral, 40 mg, Time 24 hrs, dosing every 24 hours for 7 days, read-out: Blood concentration (ng/mL)/Compliance-7X): 66.2 ng/mL; concentration at 24 h ([2]; male, human, blood, oral, 24 hr, before accumulation, read-out: blood concentration remaining at 24 hr): ~40 ng/mL; concentration at 0 h ([2]; male, human, blood, oral, Time 0 hrs, drug taken only one day, read-out: Blood concentration (ng/mL)/Non-Compliance-1X): 0 ng/mL; concentration at 1 h ([2]; male, human, blood, oral, Time 1 hrs, drug taken only one day, read-out: Blood concentration (ng/mL)/Non-Compliance-1X): 677 ng/mL; concentration at 2 h ([2]; male, human, blood, oral, Time 2 hrs, drug taken only one day, read-out: Blood concentration (ng/mL)/Non-Compliance-1X): 1000 ng/mL; concentration at 2.5 h ([2]; male, human, blood, oral, Time 2.5 hrs, drug taken only one day, read-out: Blood concentration (ng/mL)/Non-Compliance-1X): 976 ng/mL; concentration at 3 h ([2]; male, human, blood, oral, Time 3 hrs, drug taken only one day, read-out: Blood concentration (ng/mL)/Non-Compliance-1X): 912 ng/mL; concentration at 4 h ([2]; male, human, blood, oral, Time 4 hrs, drug taken only one day, read-out: Blood concentration (ng/mL)/Non-Compliance-1X): 760 ng/mL; concentration at 5 h ([2]; male, human, blood, oral, Time 5 hrs, drug taken only one day, read-out: Blood concentration (ng/mL)/Non-Compliance-1X): 617 ng/mL; concentration at 6 h ([2]; male, human, blood, oral, Time 6 hrs, drug taken only one day, read-out: Blood concentration (ng/mL)/Non-Compliance-1X): 452 ng/mL; concentration at 8 h ([2]; male, human, blood, oral, Time 8 hrs, drug taken only one day, read-out: Blood concentration (ng/mL)/Non-Compliance-1X): 289 ng/mL; concentration at 10 h ([2]; male, human, blood, oral, Time 10 hrs, drug taken only one day, read-out: Blood concentration (ng/mL)/Non-Compliance-1X): 202 ng/mL; concentration at 12 h ([2]; male, human, blood, oral, Time 12 hrs, drug taken only one day, read-out: Blood concentration (ng/mL)/Non-Compliance-1X): 146 ng/mL; concentration at 16 h ([2]; male, human, blood, oral, Time 16 hrs, drug taken only one day, read-out: Blood concentration (ng/mL)/Non-Compliance-1X): 87.9 ng/mL; concentration at 24 h ([2]; male, human, blood, oral, Time 24 hrs, drug taken only one day, read-out: Blood concentration (ng/mL)/Non-Compliance-1X): 41.1 ng/mL; AUC ([2]; male, human, blood, oral, population of subjects receiving olmesartan at 40 mg/day, daily administration, read-out: median AUC (target AUC)): ~7000 ng·h/mL; clearance ([2]; much of the drug gone from the system at 48 hr): rapid clearance; subjects achieving target blood pressure reduction [3]: about 50%
